Like-named read-outs stand apart in the source and are kept apart here. Square brackets hold non-standard residues; d marks the D form. Peptide text beside a SMILES is read from it. * marks the point of attachment. Lys(5-FITC)NH2 = NC(=O)[C@H](CCCCNC(=S)Nc1ccc2c(c1)C(=O)OC21c2ccc(O)cc2Oc2cc(O)ccc21)N*; FITC = O=C1OC2(c3ccc(O)cc3Oc3cc(O)ccc32)c2ccc(NC(=S)*)cc21; Phe(4-F) = N[C@@H](Cc1ccc(F)cc1)C(=O)O; d2Nal = N[C@H](Cc1ccc2ccccc2c1)C(=O)O; Benzoyl(3-Br) = O=C(c1cccc(Br)c1)*; Benzoyl(3-Cl) = O=C(c1cccc(Cl)c1)*; Isonicotinoyl = O=C(c1ccncc1)*; Phg = N[C@H](C(=O)O)c1ccccc1; Tle = CC(C)(C)[C@H](N)C(=O)O; X2 = O=C(C=Cc1ccc(Cl)cc1)*; dNle = CCCC[C@@H](N)C(=O)O; X4 = O=C(c1ccc(Cl)nc1)*; Dap = NC[C@H](N)C(=O)O; Bn = c1ccc(C*)cc1
Tests used:
A549 cells = experiment: Cellular uptake of FITC-labeled peptides (live-cell confocal microscopy, FACS); settings: Gln8 replaced with L- or D-arginine
[1] = target: T1, K-Ras / Raf RBD interaction (Homo sapiens, UniProt P01116, G12V); experiment: HTRF assay, inhibition of Ras-Raf RBD interaction; format: binding;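 further: HTRF signal read after overnight incubation of the assay plate at 4 °C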
T1 construct: The G12V mutant K-Ras (amino acids 1-185) was recombinantly fused; GST (N, cleaved yes); made in house; host or cells: Escherichia coli BL21
Protocol: Recombinant HA-tagged K-Ras (no GST, 50 nM), GST-Raf RBD (50 nM each), a monoclonal anti-HA antibody labeled with acceptor d2 (2 μg/mL), a monoclonal anti-GST antibody labeled with donor Tb (0.25 μg/mL) (Cisbio), and increasing concentrations of cyclic peptide (0-20 μM) were mixed inPBS (total volume of 20 μL) in a 384-well plate. The plate was incubated overnight at 4° C. and the HTRF signal was measured on a Molecular Devices Spectramax M5 or a Tecan infinite M1000 Pro plate reader. The data were analyzed by Prism 6.0 from Graphpad Software, Inc. (La Jolla, Calif.) and IC50 values were obtained by fitting the data to dose-response-inhibition curve.

K-Ras(G12V) = target: T2, K-Ras(G12V) (Homo sapiens, UniProt P01116, G12V); experiment: Fluorescence anisotropy (FA) binding of FITC-labeled cyclic peptides to K-Ras
T2 construct: The G12V mutant K-Ras (amino acids 1-185) was recombinantly fused; GST (N, cleaved yes); made in house; host or cells: Escherichia coli BL21
Protocol: The 13 hits were resynthesized, labeled with fluorescein isothiocyanate (FITC), purified by HPLC, and tested for binding to K-Ras by fluorescence anisotropy (FA).
For cyclic peptides derived from single library beads (library screening), K-Ras protein (non-GST fusion, 0-20 μM) was incubated with the TMR-labeled peptide (50 or 100 nM) in 20 μL of the blocking buffer for 2.5 h at 24° C. The FA values were measured on a Molecular Devices Spectramax M5 spectrofluorimeter, with excitation and emission wavelengths at 545 and 585 nm, respectively. Equilibrium dissociation constants (KD) were determined by plotting the FA values as a function of K-Ras concentration and fitting the data to the equation
[formula] where Y is the measured anisotropy at a given K-Ras concentration x; L is the peptide concentration; Qb/Qf is the correction fact for dye-protein interaction; Amax is the maximum anisotropy at saturating K-Ras concentration; and Amin is the minimum anisotropy. FA analyses with resynthesized FITC-labeled peptides were similarly carried out, except that the excitation and emission wavelengths were at 494 and 520 nm, respectively.

H1299 lung cancer cells = format: cell-based; settings: H1299 cells, MTT, 72 hours; read-out: Anti-proliferative Activity IC50
Protocol: MTT assays (17) were performed with H1299 lung cancer cells. One hundred μL of H1299 cells (0.5×10^5 cells/mL) were seeded in each well of a 96-well culture plate and allowed to grow overnight in Advanced RPMI medium supplemented with 10% fetal bovine serum (FBS) and 1% penicillin-streptomycin. Varying concentrations of cyclic peptide (0-25 μM) were added to the each well and the cells were incubated at 37° C. with 5% CO2 for 72 hours. Ten μL of a MTT stock solution (Roche) was added into each well. The plate was incubated at 37° C. for 4 h. Then 100 μL of SDS-HCl solubilizing buffer was added into each well, and the resulting solution was mixed thoroughly. The plate was incubated at 37° C. overnight. The absorbance of the formazan product was measured at 570 nm using a Molecular Devices Spectramax M5 plate reader. Each experiment was performed in triplicates and the cells without any peptide added were treated as control.

[2] = Table 1, resynthesized FITC-labeled peptides, FA, K-Ras, read-out: KD
[3] = Table 2, FITC-labeled peptide, read-out: Binding affinity KD

T2 sequence (P01116 1-185 isoform P01116-2 G12V): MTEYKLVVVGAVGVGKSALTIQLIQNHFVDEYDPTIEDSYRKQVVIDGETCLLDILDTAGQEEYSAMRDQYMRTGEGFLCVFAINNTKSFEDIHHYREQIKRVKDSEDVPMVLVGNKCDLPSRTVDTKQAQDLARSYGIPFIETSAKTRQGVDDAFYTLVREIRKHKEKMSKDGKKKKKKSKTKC
T1 sequence (P01116 1-185 isoform P01116-2 G12V): as above

CCCC[C@H]1NC(=O)[C@H](Cc2ccc(F)cc2)NC(=O)[C@H](CCCNC(=N)N)NC(=O)[C@@H](Cc2ccc3ccccc3c2)NC(=O)[C@H](CCCNC(=N)N)NC(=O)[C@H](CCCNC(=N)N)NC(=O)[C@@H](CCCNC(=N)N)NC(=O)[C@@H](C)NC(=O)[C@H]([C@@H](C)O)NC(=O)[C@H](Cc2c[nH]c3ccccc23)NC(=O)[C@H](CCC(N)=O)NC1=O [Cyclorasin 9A6, (Trp-Thr-ala-arg-Arg-Arg-nal-Arg-Fpa-nle-Gln)] (cyclo(WT[dA][dR]RR[d2Nal]R[Phe(4-F)][dNle]Q))
cell permeability relative to earlier peptides (A549 cells): improved cell permeability | IC50 [1]: 170 nM

N=C(N)NCCC[C@@H]1NC(=O)[C@H](CCC(=O)N[C@@H](CCCCNC(=S)Nc2ccc3c(c2)C(=O)OC32c3ccc(O)cc3Oc3cc(O)ccc32)C(N)=O)NC(=O)[C@@H](Cc2ccccc2)NC(=O)[C@@H](CO)NC(=O)[C@H](Cc2ccc(O)cc2)NC(=O)[C@H](c2ccccc2)NC(=O)[C@H](Cc2ccc(F)cc2)NC(=O)[C@H](CCCNC(=N)N)NC(=O)[C@@H](Cc2ccc3ccccc3c2)NC(=O)[C@H](CCCNC(=N)N)NC1=O [Cyclorasin 8A, (Arg-Arg-nal-Arg-Fpa-Phg-Tyr-ser-phe-Gln)] (cyclo(RR[d2Nal]R[Phe(4-F)][Phg]Y[dS][dF]E(Lys(5-FITC)NH2)))
Kd (K-Ras(G12V); [2]): > 10000 nM

C[C@H]1NC(=O)[C@H](C(C)(C)C)NC(=O)[C@H](Cc2c[nH]c3ccccc23)NC(=O)[C@H](CCC(N)=O)NC(=O)[C@@H](CCCCN)NC(=O)[C@H](Cc2ccc(F)cc2)NC(=O)[C@H](CCCNC(=N)N)NC(=O)[C@@H](Cc2ccc3ccccc3c2)NC(=O)[C@H](CCCCNC(=S)Nc2ccc3c(c2)C(=O)OC32c3ccc(O)cc3Oc3cc(O)ccc32)NC(=O)[C@H](CCCNC(=N)N)NC(=O)[C@H](CCCNC(=N)N)NC1=O [Cyclorasin 9A31, (Trp-Tle-ala-Arg-Arg-Lys(FITC)-nal-Arg-Fpa-lys-Gln)] (cyclo(K(FITC)[d2Nal]R[Phe(4-F)][dK]QW[Tle][dA]RR))
Kd (K-Ras(G12V); [3]): 110 ± 10 nM

C[C@H]1NC(=O)[C@H](C(C)(C)C)NC(=O)[C@H](CNC(=O)C=Cc2ccc(Cl)cc2)NC(=O)[C@H](CCC(N)=O)NC(=O)[C@@H](CCCCN)NC(=O)[C@H](Cc2ccc(F)cc2)NC(=O)[C@H](CCCNC(=N)N)NC(=O)[C@@H](Cc2ccc3ccccc3c2)NC(=O)[C@H](CCCCNC(=S)Nc2ccc3c(c2)C(=O)OC32c3ccc(O)cc3Oc3cc(O)ccc32)NC(=O)[C@H](CCCNC(=N)N)NC(=O)[C@H](CCCNC(=N)N)NC1=O [Cyclorasin 9A28, (Dap(4-chlorocinnamoyl)-Tle-ala-Arg-Arg-Lys(FITC)-nal-Arg-Fpa-lys-Gln)] (cyclo([Dap](X2)[Tle][dA]RRK(FITC)[d2Nal]R[Phe(4-F)][dK]Q))
Kd (K-Ras(G12V); [3]): 160 ± 20 nM

C[C@H]1NC(=O)[C@H](C(C)(C)C)NC(=O)[C@H](CNC(=O)c2ccc(Cl)nc2)NC(=O)[C@H](CCC(N)=O)NC(=O)[C@@H](CCCCN)NC(=O)[C@H](Cc2ccc(F)cc2)NC(=O)[C@H](CCCNC(=N)N)NC(=O)[C@@H](Cc2ccc3ccccc3c2)NC(=O)[C@H](CCCCNC(=S)Nc2ccc3c(c2)C(=O)OC32c3ccc(O)cc3Oc3cc(O)ccc32)NC(=O)[C@H](CCCNC(=N)N)NC(=O)[C@H](CCCNC(=N)N)NC1=O [Cyclorasin 9A27, (Dap(6-chloronicotinoyl)-Tle-ala-Arg-Arg-Lys(FITC)-nal-Arg-Fpa-lys-Gln)] (cyclo([Dap](X4)[Tle][dA]RRK(FITC)[d2Nal]R[Phe(4-F)][dK]Q))
Kd (K-Ras(G12V); [3]): 1000 ± 100 nM

C[C@H]1NC(=O)[C@H](C(C)(C)C)NC(=O)[C@H]([C@@H](C)OCc2ccccc2)NC(=O)[C@H](CCC(N)=O)NC(=O)[C@@H](CCCCN)NC(=O)[C@H](Cc2ccc(F)cc2)NC(=O)[C@H](CCCNC(=N)N)NC(=O)[C@@H](Cc2ccc3ccccc3c2)NC(=O)[C@H](CCCCNC(=S)Nc2ccc3c(c2)C(=O)OC32c3ccc(O)cc3Oc3cc(O)ccc32)NC(=O)[C@H](CCCNC(=N)N)NC(=O)[C@H](CCCNC(=N)N)NC1=O [Cyclorasin 9A26, (Thr(Bzl)-Tle-ala-Arg-Arg-Lys(FITC)-nal-Arg-Fpa-lys-Gln)] (cyclo(K(FITC)[d2Nal]R[Phe(4-F)][dK]QT(Bn)[Tle][dA]RR))
Kd (K-Ras(G12V); [3]): 710 ± 70 nM

CC(C)[C@H]1NC(=O)[C@H](Cc2ccc(F)cc2)NC(=O)[C@H](Cc2ccc(O)cc2)NC(=O)[C@H](CCCNC(=N)N)NC(=O)[C@H](Cc2ccc(F)cc2)NC(=O)[C@H](CCCNC(=N)N)NC(=O)[C@@H](Cc2ccc3ccccc3c2)NC(=O)[C@H](CCCNC(=N)N)NC(=O)[C@H](CCCNC(=N)N)NC(=O)[C@H](CCC(=O)N[C@@H](CCCCNC(=S)Nc2ccc3c(c2)C(=O)OC32c3ccc(O)cc3Oc3cc(O)ccc32)C(N)=O)NC1=O [Cyclorasin 1A, (Arg-Arg-nal-Arg-Fpa-Arg-Tyr-Fpa-val-Gln)] (cyclo(RR[d2Nal]R[Phe(4-F)]RY[Phe(4-F)][dV]E(Lys(5-FITC)NH2)))
Kd (K-Ras(G12V); [2]): > 10000 nM

C[C@H]1NC(=O)[C@H](C(C)(C)C)NC(=O)[C@H](CNC(=O)c2ccncc2)NC(=O)[C@H](CCC(N)=O)NC(=O)[C@@H](CCCCN)NC(=O)[C@H](Cc2ccc(F)cc2)NC(=O)[C@H](CCCNC(=N)N)NC(=O)[C@@H](Cc2ccc3ccccc3c2)NC(=O)[C@H](CCCCNC(=S)Nc2ccc3c(c2)C(=O)OC32c3ccc(O)cc3Oc3cc(O)ccc32)NC(=O)[C@H](CCCNC(=N)N)NC(=O)[C@H](CCCNC(=N)N)NC1=O [Cyclorasin 9A29, (Dap(isonicotinoyl)-Tle-ala-Arg-Arg-Lys(FITC)-nal-Arg-Fpa-lys-Gln)] (cyclo([Dap](Isonicotinoyl)[Tle][dA]RRK(FITC)[d2Nal]R[Phe(4-F)][dK]Q))
Kd (K-Ras(G12V); [3]): 1200 ± 100 nM

C[C@H]1NC(=O)[C@H](C(C)(C)C)NC(=O)[C@H](Cc2c[nH]c3ccccc23)NC(=O)[C@H](CCC(N)=O)NC(=O)[C@@H](CCCCNC(=O)c2cccc(Br)c2)NC(=O)[C@H](Cc2ccc(F)cc2)NC(=O)[C@H](CCCNC(=N)N)NC(=O)[C@@H](Cc2ccc3ccccc3c2)NC(=O)[C@H](CCCCNC(=S)Nc2ccc3c(c2)C(=O)OC32c3ccc(O)cc3Oc3cc(O)ccc32)NC(=O)[C@H](CCCNC(=N)N)NC(=O)[C@H](CCCNC(=N)N)NC1=O [Cyclorasin 9A36, (Trp-Tle-ala-Arg-Arg-Lys(FITC)-nal-Arg-Fpa-lys(3-bromobenzoyl)-Gln)] (cyclo(K(FITC)[d2Nal]R[Phe(4-F)][dK](Benzoyl(3-Br))QW[Tle][dA]RR))
Kd (K-Ras(G12V); [3]): > 20000 nM

CCCC[C@H]1NC(=O)[C@H](CNC(=O)c2cccc(Cl)c2)NC(=O)[C@H](CCCNC(=N)N)NC(=O)[C@@H](Cc2ccc3ccccc3c2)NC(=O)[C@H](CCCNC(=N)N)NC(=O)[C@H](CCCNC(=N)N)NC(=O)[C@H](CCCNC(=N)N)NC(=O)[C@@H](C)NC(=O)[C@H](C(C)(C)C)NC(=O)[C@H](Cc2c[nH]c3ccccc23)NC(=O)[C@H](CCC(N)=O)NC1=O [Cyclorasin 9A44d, (Trp-Tle-ala-Arg-Arg-Arg-nal-Arg-Dap(3-chlorobenzoyl)-nle-Gln)] (cyclo(W[Tle][dA]RRR[d2Nal]R[Dap](Benzoyl(3-Cl))[dNle]Q))
IC50 (H1299 lung cancer cells): 14000 ± 2000 nM | IC50 [1]: 49 ± 7 nM

C[C@@H](O)[C@@H]1NC(=O)[C@H](Cc2ccc(O)cc2)NC(=O)[C@@H](CC(N)=O)NC(=O)[C@H](Cc2ccc(F)cc2)NC(=O)[C@H](CCCNC(=N)N)NC(=O)[C@@H](Cc2ccc3ccccc3c2)NC(=O)[C@H](CCCNC(=N)N)NC(=O)[C@H](CCCNC(=N)N)NC(=O)[C@H](CCC(=O)N[C@@H](CCCCNC(=S)Nc2ccc3c(c2)C(=O)OC32c3ccc(O)cc3Oc3cc(O)ccc32)C(N)=O)NC(=O)[C@@H](CC(N)=O)NC1=O [Cyclorasin 2A, (Arg-Arg-nal-Arg-Fpa-asn-Tyr-Thr-asn-Gln)] (cyclo(RR[d2Nal]R[Phe(4-F)][dN]YT[dN]E(Lys(5-FITC)NH2)))
Kd (K-Ras(G12V); [2]): > 10000 nM

C[C@H]1NC(=O)[C@H](C(C)(C)C)NC(=O)[C@H](Cc2c[nH]c3ccccc23)NC(=O)[C@H](CCC(N)=O)NC(=O)[C@@H](CCCCNC(=O)c2ccncc2)NC(=O)[C@H](Cc2ccc(F)cc2)NC(=O)[C@H](CCCNC(=N)N)NC(=O)[C@@H](Cc2ccc3ccccc3c2)NC(=O)[C@H](CCCCNC(=S)Nc2ccc3c(c2)C(=O)OC32c3ccc(O)cc3Oc3cc(O)ccc32)NC(=O)[C@H](CCCNC(=N)N)NC(=O)[C@H](CCCNC(=N)N)NC1=O [Cyclorasin 9A35, (Trp-Tle-ala-Arg-Arg-Lys(FITC)-nal-Arg-Fpa-lys(isonicotinoyl)-Gln)] (cyclo(W[Tle][dA]RRK(FITC)[d2Nal]R[Phe(4-F)][dK](Isonicotinoyl)Q))
Kd (K-Ras(G12V); [3]): > 20000 nM

C[C@H]1NC(=O)[C@H](C(C)(C)C)NC(=O)[C@H](Cc2c[nH]c3ccccc23)NC(=O)[C@H](CCC(N)=O)NC(=O)[C@@H](CCCCNC(=O)c2ccc(Cl)nc2)NC(=O)[C@H](Cc2ccc(F)cc2)NC(=O)[C@H](CCCNC(=N)N)NC(=O)[C@@H](Cc2ccc3ccccc3c2)NC(=O)[C@H](CCCCNC(=S)Nc2ccc3c(c2)C(=O)OC32c3ccc(O)cc3Oc3cc(O)ccc32)NC(=O)[C@H](CCCNC(=N)N)NC(=O)[C@H](CCCNC(=N)N)NC1=O [Cyclorasin 9A33, (Trp-Tle-ala-Arg-Arg-Lys(FITC)-nal-Arg-Fpa-lys(6-chloronicotinoyl)-Gln)] (cyclo(K(FITC)[d2Nal]R[Phe(4-F)][dK](X4)QW[Tle][dA]RR))
Kd (K-Ras(G12V); [3]): > 20000 nM

— patent publication US10736932B2, “Small molecule Ras inhibitors” (Ohio State Innovation Foundation, priority 2014, dated 2020)
